US6737383B1, “Herbicidal oxadiazolidines” (priority 1999, dated 2004)

How the values were obtained:
bamyardgrass = assay: Test B flood test barnyardgrass; assay type: in vivo, Echinochloa crus-galli; details: for Plant response rating, Barnyardgrass (0 to 10 scale, 0 is no effect, 10 is complete control) / Barnyardgrass plant response rating (0 to 10 scale, 0 is no effect, 10 is complete control): visual evaluation after twelve to sixteen days; for Barnyardgrass plant response rating (0 to 10 scale, 0 is no effect, 10 is complete control): under heading Pre-emergence
Outline: (§1)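 Each value is a visual injury score relative to controls, with 10 meaning complete control and 0 no effect. Evaluation took place twelve to sixteen days after the 2-leaf-stage plants were treated and kept in the greenhouse.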

rape = assay: Test B pre/postemergence rape; assay type: in vivo, Brassica napus
Outline: (§2)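 Herbicidal effect was estimated by eye on a ten-point control scale after plants spent twelve to sixteen days in a greenhouse following soil or foliar treatment. Foliar sprays targeted plants at one to four leaves; all doses were formulated in a non-phytotoxic solvent with surfactant.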

smallflower flatsedge = assay: Test B flood test smallflower flatsedge; assay type: in vivo, Cyperus difformis; details: for Plant response rating, S. Flatsedge (0 to 10 scale, 0 is no effect, 10 is complete control) / S. Flatsedge plant response rating (0 to 10 scale, 0 is no effect, 10 is complete control): visual evaluation after twelve to sixteen days; for S. Flatsedge plant response rating (0 to 10 scale, 0 is no effect, 10 is complete control): under heading Pre-emergence
Outline: as §1

morningglory = assay: Test B pre/postemergence morningglory; assay type: in vivo, Ipomoea hederacea
Outline: as §2

[1] = Rate 62 g/ha, flood test species, Pre-emergence
[2] = Rate 125 g/ha, flood test species
[3] = Rate 250 g/ha, Pre-emergence (flood test species), scale 0 to 10, 0 is no effect, 10 is complete control
[4] = Rate 500 g/ha, Pre-emergence, flood test species, scale 0 to 10 (0 no effect, 10 complete control)
[5] = Postemergence, Rate 250 g/ha, scale 0 to 10
[6] = Preemergence, Rate 62 g/ha, scale of 0 to 10 where 0 is no effect and 10 is complete control
[7] = Preemergence, Rate 125 g/ha, scale of 0 to 10 where 0 is no effect and 10 is complete control
[8] = Preemergence, Rate 250 g/ha, scale 0 to 10, 0 is no effect, 10 is complete control
[9] = Preemergence, Rate 500 g/ha, scale 0 to 10, 0 is no effect, 10 is complete control
[10] = Rate 62 g/ha, Postemergence, scale 0 to 10, 0 no effect, 10 complete control
[11] = Rate 125 g/ha, Postemergence, scale 0 to 10, 0 is no effect, 10 is complete control
[12] = Rate 250 g/ha, Pre-emergence, flood-test species, scale 0 to 10, 0 is no effect, 10 is complete control
[13] = Postemergence, Rate 500 g/ha, scale of 0 to 10 where 0 is no effect and 10 is complete control
[14] = Preemergence, Rate 62 g/ha, scale 0 to 10 (0 no effect, 10 complete control)
[15] = Rate 62 g/ha, Postemergence, scale of 0 to 10 where 0 is no effect and 10 is complete control
[16] = Postemergence, Rate 62 g/ha, scale 0 to 10, 0 is no effect, 10 is complete control
[17] = Rate 125 g/ha, Postemergence section (flood test species), scale 0 to 10, 0 no effect, 10 complete control
[18] = Rate 500 g/ha, listed under Postemergence (flood test species), scale 0 to 10, 0 no effect, 10 complete control
[19] = flood test, listed under Postemergence, Rate 250 g/ha, scale 0 to 10, 0 no effect, 10 complete control
[20] = Postemergence, Rate 250 g/ha, scale 0 to 10, 0 no effect, 10 complete control
[21] = Preemergence, Rate 125 g/ha, scale 0 to 10 (0 no effect, 10 complete control)
[22] = Preemergence, Rate 250 g/ha, scale of 0 to 10 where 0 is no effect and 10 is complete control
[23] = Preemergence, Rate 500 g/ha, scale 0 (no effect) to 10 (complete control)
[24] = Rate 125 g/ha, Postemergence, scale 0 to 10, 0 no effect, 10 complete control
[25] = Rate 500 g/ha, Postemergence, scale 0 to 10, 0 no effect, 10 complete control

## CCC=CCn1c(=O)on(C(=O)N(c2ccccc2)C(C)C)c1=O [Compound 454]
bamyardgrass; [1]
  Plant response rating, Barnyardgrass (0 to 10 scale, 0 is no effect, 10 is complete control): 0
bamyardgrass; [2]
  Barnyardgrass plant response rating (0 to 10 scale, 0 is no effect, 10 is complete control): 0
bamyardgrass; [3]
  Barnyardgrass plant response rating: 0
bamyardgrass; [4]
  Barnyardgrass plant response rating: 0
rape; [5]
  Rape plant response rating: 0
rape; [6]
  Plant response rating, Rape: 0
rape; [7]
  Plant response rating, Rape: 0
rape; [8]
  Rape plant response rating: 0
rape; [9]
  Rape plant response rating: 0
rape; [10]
  Rape plant response rating: 0
rape; [11]
  Rape plant response rating: 0
Smallflower flatsedge; [1]
  Plant response rating, S. Flatsedge (0 to 10 scale, 0 is no effect, 10 is complete control): 0
Smallflower flatsedge; [2]
  S. Flatsedge plant response rating (0 to 10 scale, 0 is no effect, 10 is complete control): 0
Smallflower flatsedge; [3]
  S. Flatsedge plant response rating: 0
Smallflower flatsedge; [4]
  S. Flatsedge plant response rating: 0
morningglory; [5]
  Morningglory plant response rating: 10
morningglory; [6]
  Plant response rating, Morningglory: 0
morningglory; [7]
  Plant response rating, Morningglory: 0
morningglory; [8]
  Morningglory plant response rating: 0
morningglory; [9]
  Morningglory plant response rating: 0
morningglory; [10]
  Morningglory plant response rating: 7
morningglory; [11]
  Morningglory plant response rating: 9

## Cc1nc(Cl)sc1C(C)n1c(=O)on(C(=O)N(c2ccc(F)cc2)C(C)C)c1=O (stereo not shown) [Compound 401]
bamyardgrass; [1]
  Plant response rating, Barnyardgrass (0 to 10 scale, 0 is no effect, 10 is complete control): 0
bamyardgrass; [2]
  Barnyardgrass plant response rating (0 to 10 scale, 0 is no effect, 10 is complete control): 0
bamyardgrass; [12]
  Barnyardgrass plant response rating: 0
bamyardgrass; [4]
  Barnyardgrass plant response rating: 0
rape; [13]
  Rape plant response rating: 7
rape; [14]
  Plant response rating, Rape: 0
rape; [7]
  Plant response rating, Rape: 0
rape; [8]
  Rape plant response rating: 0
rape; [9]
  Rape plant response rating: 0
rape; [15]
  Rape plant response rating: 0
Smallflower flatsedge; [1]
  Plant response rating, S. Flatsedge (0 to 10 scale, 0 is no effect, 10 is complete control): 0
Smallflower flatsedge; [2]
  S. Flatsedge plant response rating (0 to 10 scale, 0 is no effect, 10 is complete control): 0
Smallflower flatsedge; [12]
  S. Flatsedge plant response rating: 0
Smallflower flatsedge; [4]
  S. Flatsedge plant response rating: 0
morningglory; Postemergence, Rate 250 g/ha, scale 0 to 10, 0 is no effect, 10 is complete control
  Plant response rating, Morningglory: 6
morningglory; [13]
  Morningglory plant response rating: 7
morningglory; [14]
  Plant response rating, Morningglory: 0
morningglory; [7]
  Plant response rating, Morningglory: 0
morningglory; [8]
  Morningglory plant response rating: 0
morningglory; [9]
  Morningglory plant response rating: 0
morningglory; [15]
  Morningglory plant response rating: 3

## Cc1cccc(C(C)C)c1-n1c(=O)on(C(=O)N(c2ccccc2)C(C)C)c1=O [Compound 66]
bamyardgrass; [16]
  Barnyardgrass plant response rating: 0
bamyardgrass; [17]
  Barnyardgrass plant response rating: 0
bamyardgrass; [18]
  Barnyardgrass plant response rating: 3
bamyardgrass; [19]
  Barnyardgrass plant response rating: 0
rape; [16]
  Rape plant response rating: 0
rape; [20]
  Rape plant response rating: 0
rape; [14]
  Rape plant response rating: 0
rape; [21]
  Plant response rating, Rape: 0
rape; [22]
  Plant response rating, Rape: 0
rape; [23]
  Rape plant response rating: 0
rape; [24]
  Rape plant response rating: 0
rape; [25]
  Rape plant response rating: 0
Smallflower flatsedge; [16]
  S. Flatsedge plant response rating: 0
Smallflower flatsedge; [17]
  S. Flatsedge plant response rating: 0
Smallflower flatsedge; [18]
  S. Flatsedge plant response rating: 3
Smallflower flatsedge; [19]
  S. Flatsedge plant response rating: 2
morningglory; [16]
  Morningglory plant response rating: 0
morningglory; [20]
  Morningglory plant response rating: 1
morningglory; [14]
  Morningglory plant response rating: 0
morningglory; [21]
  Plant response rating, Morningglory: 0
morningglory; [22]
  Plant response rating, Morningglory: 0
morningglory; [23]
  Morningglory plant response rating: 0
morningglory; [24]
  Morningglory plant response rating: 1
morningglory; [25]
  Morningglory plant response rating: 2
